# Tests used:
# human NPP3 = biological target: T1, human NPP3 (Homo sapiens, UniProt O14638); assay: Inhibition of NPP3 activity; assay type: biochemical; conditions: read-out: inhibition of NPP3 activity
# T1 construct: made in house; host or cells: COS-7 cells (transfected; protein extract / cell lysate)
# T1 sequence (O14638 1-875): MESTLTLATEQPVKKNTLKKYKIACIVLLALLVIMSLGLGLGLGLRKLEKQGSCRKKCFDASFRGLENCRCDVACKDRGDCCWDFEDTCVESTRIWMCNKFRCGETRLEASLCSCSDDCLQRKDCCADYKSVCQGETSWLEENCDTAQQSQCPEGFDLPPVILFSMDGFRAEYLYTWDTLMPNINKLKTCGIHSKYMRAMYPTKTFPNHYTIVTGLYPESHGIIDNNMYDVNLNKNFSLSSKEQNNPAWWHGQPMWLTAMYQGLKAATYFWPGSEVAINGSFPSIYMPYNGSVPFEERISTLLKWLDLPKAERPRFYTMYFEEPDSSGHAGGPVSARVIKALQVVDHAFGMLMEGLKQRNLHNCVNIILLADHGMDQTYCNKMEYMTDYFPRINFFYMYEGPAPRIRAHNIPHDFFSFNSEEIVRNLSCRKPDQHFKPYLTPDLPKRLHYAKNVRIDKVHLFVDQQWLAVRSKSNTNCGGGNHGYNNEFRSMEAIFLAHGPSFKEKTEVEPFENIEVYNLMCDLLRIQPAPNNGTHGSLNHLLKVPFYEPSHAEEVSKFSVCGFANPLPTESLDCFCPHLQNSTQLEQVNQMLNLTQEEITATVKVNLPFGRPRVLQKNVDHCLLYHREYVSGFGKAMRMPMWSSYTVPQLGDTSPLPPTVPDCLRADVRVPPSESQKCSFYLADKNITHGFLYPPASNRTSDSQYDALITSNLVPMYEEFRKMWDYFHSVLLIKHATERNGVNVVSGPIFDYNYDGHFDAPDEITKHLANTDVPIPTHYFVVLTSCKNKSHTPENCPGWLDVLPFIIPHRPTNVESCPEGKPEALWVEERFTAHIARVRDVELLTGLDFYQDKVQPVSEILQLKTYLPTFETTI
# Procedure: Pnp-TMP hydrolyses were carried out at 37° C. in 0.2 ml of the following incubation mixture: in mM, 1 CaCl2, 130 NaCl, 5 KCl and 50 Tris, pH 8.5, with or without the analogue tested and/or substrates. Substrates and analogues were all used at the final concentration of 100 μM. […] For pnp-TMP hydrolysis, the production of para-nitro-phenol was measured at […], 15 min after the initiation of the reaction.
# The samples were centrifuged for 5 min at 13,000×g. Supernatants were neutralized with 1 M KOH (Fisher Scientific, Ottawa, ON, Canada) at 4° C. and centrifuged for 5 min at 13,000×g.
# human NPP1 = biological target: T2, human NPP1 (Homo sapiens, UniProt P22413); assay: Inhibition of NPP1 activity; assay type: biochemical; conditions: Dixon and Cornish-Bowden methods
# T2 construct: made in house; host or cells: COS-7 cells (transfected; protein extract / cell lysate)
# T2 sequence (P22413 1-925): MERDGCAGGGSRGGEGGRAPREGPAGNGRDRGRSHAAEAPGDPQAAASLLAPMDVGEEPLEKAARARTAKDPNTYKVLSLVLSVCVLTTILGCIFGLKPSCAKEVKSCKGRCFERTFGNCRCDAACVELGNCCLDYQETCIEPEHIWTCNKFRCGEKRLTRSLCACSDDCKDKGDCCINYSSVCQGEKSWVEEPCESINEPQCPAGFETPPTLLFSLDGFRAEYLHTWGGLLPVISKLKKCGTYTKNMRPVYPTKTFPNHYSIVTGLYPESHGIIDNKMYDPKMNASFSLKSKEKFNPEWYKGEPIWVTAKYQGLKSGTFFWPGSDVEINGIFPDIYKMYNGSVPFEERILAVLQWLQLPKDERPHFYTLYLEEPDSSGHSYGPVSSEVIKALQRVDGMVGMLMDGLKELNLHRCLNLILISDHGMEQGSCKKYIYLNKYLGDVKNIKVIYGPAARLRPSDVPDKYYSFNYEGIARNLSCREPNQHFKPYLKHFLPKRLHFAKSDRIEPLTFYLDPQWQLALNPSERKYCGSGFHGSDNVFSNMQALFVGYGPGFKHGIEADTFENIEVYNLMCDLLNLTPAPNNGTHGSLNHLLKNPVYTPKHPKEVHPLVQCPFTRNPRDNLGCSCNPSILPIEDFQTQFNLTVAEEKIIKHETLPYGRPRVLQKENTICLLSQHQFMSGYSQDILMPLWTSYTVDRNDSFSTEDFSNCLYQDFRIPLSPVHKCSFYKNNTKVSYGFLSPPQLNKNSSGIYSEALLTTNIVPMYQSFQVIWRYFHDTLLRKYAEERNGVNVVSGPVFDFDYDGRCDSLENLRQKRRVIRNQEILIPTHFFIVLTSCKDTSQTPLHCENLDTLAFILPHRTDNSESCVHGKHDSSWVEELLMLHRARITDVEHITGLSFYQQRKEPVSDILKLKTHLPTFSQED
# human P2Y1-R = biological target: T3, human P2Y1-R (Homo sapiens, UniProt P47900); assay: [Ca^2+]i response of 1321N1 astrocytoma cells expressing P2Y1-R GFP; assay type: cell-based; conditions: agonist; read-out: EC50 at the P2Y1 receptor
# T3 construct: expressed in transfected cells; host or cells: 1321N1 astrocytoma cells
# Procedure: GFP constructs of human P2Y2-R, P2Y1-R and P2Y11-R were stably expressed in 1321N1 astrocytoma cells, which lack endogenous expression of P2X- and P2Y-receptors. The respective cDNA of the receptor gene was cloned into a pEGFPN1 vector and after transfection, using FuGENE 6 Transfection Reagent (Roche Molecular Biochemicals, Mannheim, Germany), cells were selected with 0.5 mg/ml G418 (geneticine; Merck Chemicals, Darmstadt, Germany) and grown in DMEM supplemented with 10% serum (FCS), 100 U/ml penicillin and 100 U/ml streptomycin at 37° C. and 5% CO2. The expression and cell membrane localization of the respective P2Y receptors was confirmed through the analysis of the GFP fluorescence. The functionality of the expressed GFP-labeled receptor in cells was verified by recording a change of [Ca^2+]i after stimulation with the appropriate receptor agonist.
# 1321N1 astrocytoma cells transfected with the respective plasmid for P2Y-R-GFP expression plated on coverslips (22 mm diameter) and grown to approximately 80% density, were incubated with 2 μM fura 2/AM and 0.02% pluronic acid in Na-HBS buffer (Hepes buffered saline: 145 mM NaCl, 5.4 mM KCl, 1.8 mM CaCl2, 1 mM MgCl2, 25 mM glucose, 20 mM Hepes/Tris pH 7.4) for 30 min at 37° C. The cells were superfused (1 ml/min, 37° C.) with different concentrations of nucleotide in Na-HBS buffer. The nucleotide-induced change of [Ca^2+] was monitored by detecting the fluorescence intensities with excitations at 340 nm and 380 nm. Only GFP-labeled cells were analyzed. Microsoft Excel (Microsoft Corp., Redmond, Wash., USA) and SigmaPlot (SPSS Inc., Chicago, Ill., USA) were used to derive the concentration-response curves and EC50 values from the average response amplitudes obtained in at least three independent experiments (Ecke et al., 2006; Ecke et al., 2008). Only cells with a clear GFP-signal and with the typical calcium response kinetics upon agonist pulse application were included in the data analysis. The nucleotide induced change of [Ca^2+]i was monitored by detecting the respective emission intensity of fura 2/AM at 510 nm with 340 nm and 380 nm excitations (Ubl et al., 1998). The average maximal amplitude of the responses and the respective standard errors were calculated from ratio of the fura 2/AM. The GFP-tagged P2Y receptors are suitable for pharmacological and physiological studies, as previously reported (Tulapurkar et al., 2004; Tulapurkar et al., 2006; Zylberg et al., 2007).
# [1] = ESR OH radical assay, Fe^2+/H2O2 Fenton system; conditions: N/A = minimal radical production exceeds 10%
# cortical neurons = assay: Neuroprotection of cultured cortical neurons exposed to FeSO4 or FeSO4/H2O2; assay type: cell-based; conditions: Cortical neurone; Table 2, neuroprotection of primary neurons exposed to FeSO4; read-out: IC50
# Procedure: FIGS. 10A-10B show the neuroprotective effect of ATP-γ-S and GDP-β-S (0.2-200 μM, t=24 h) as evaluated by MTT production in cortical neurons exposed for 24 h to either FeSO4 at final concentration of 3 μM (10A); or both FeSO4 (3 μM) and H2O2 (100 μM) (10B). The results shown are the mean±SEM of three independent experiments in quadruplicate.
# Cultured cortical neurons in 96-well plates were treated with different concentrations of FeSO4, or hydrogen peroxide and FeSO4, for 24 h at 37° C. Following exposure to various insults, the cells were treated with ATP-γ-S and GDP-β-S as described. Cells were subsequently incubated for a further 18-24 h as indicated before being assessed for viability measures. Neurons were treated with ATP-γ-S and GDP-β-S at three concentrations ([…]) simultaneously with 1.5, 3 or 6 μM FeSO4 for 24 h. Following 24 h incubation in the presence of both FeSO4 and ATP-γ-S and GDP-β-S cell viability measures were assessed by XTT assay. All experiments were performed in triplicate.
# FeSO4 induced a concentration-dependent decrease in cell viability as assessed by XTT assay and morphological assessment following 24 h of exposure (FIG. 9). The neuroprotective effect of ATP-γ-S and GDP-β-S (due to iron chelation) was evaluated in cortical neurons exposed to FeSO4 for 24 h (FIG. 10).
# TNAP = biological target: T4, TNAP (Homo sapiens, UniProt P05186); assay: Hydrolysis by TNAP; assay type: in vitro ADME; conditions: 1 h
# T4 sequence (P05186 18-501): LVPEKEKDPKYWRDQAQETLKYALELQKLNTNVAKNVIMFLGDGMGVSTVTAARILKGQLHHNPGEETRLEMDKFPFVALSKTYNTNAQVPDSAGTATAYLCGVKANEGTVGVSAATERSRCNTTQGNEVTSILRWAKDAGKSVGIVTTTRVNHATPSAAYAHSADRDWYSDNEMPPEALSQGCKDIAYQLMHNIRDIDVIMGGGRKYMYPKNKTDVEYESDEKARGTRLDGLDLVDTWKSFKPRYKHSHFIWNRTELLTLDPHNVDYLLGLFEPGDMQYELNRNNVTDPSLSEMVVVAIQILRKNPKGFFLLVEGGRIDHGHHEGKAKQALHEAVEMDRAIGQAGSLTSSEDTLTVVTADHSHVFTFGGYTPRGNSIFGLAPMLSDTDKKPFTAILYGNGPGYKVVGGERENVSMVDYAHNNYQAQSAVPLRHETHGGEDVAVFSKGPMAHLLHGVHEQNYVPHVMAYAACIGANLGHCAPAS
# From the text: The metabolic stability of APPCCl2P-α-S (isomer A) and APCPP-γ-S was further proven by their resistance to enzymatic hydrolysis by TNAP.
# [2] = literature; cited from earlier work
# primary neurons = assay: Protection of primary neuron culture against Aβ42 insult (trypan blue count); assay type: cell-based; conditions: at 25 μM, 50 μM Aβ42, 48 h
# Procedure: Primary neuron cells were cultured in 96 wells plate (95×10^4 per well). After 24 h the cells were treated with 50 μM Aβ42 and various concentrations of APCPP-γ-S (0.04-25 μM) for 48 h. Cell viability was measured by dyeing the cells with trypan blue and counts of the vital cells. The results shown are the mean±S.D of three independent experiments in triplicate (*P<0.05, vs. Aβ42 treatment).
# Primary neurons cells were cultured in 96 wells plate (95×10^4 per well). […] Cell viability was measured by dyeing the cells with trypan blue and counts the vital cells. The results shown are the mean±S.D of three independent experiments in triplicate (*P<0.05, **P<0.01 vs. Aβ42 treatment).
# In this study, the neuroprotective activity of APCPP-γ-S in neuronal cells exposed to toxic Aβ42 was evaluated. At first we measured the number of the viable neuronal cells after treatment with Aβ42 (5-50 μM) (FIG. 11). At 50 μM Aβ42, 50% of the neuronal culture remained vital. Next, we measured the protective effect of APCPP-γ-S: primary neurons were treated with APCPP-γ-S (0.04-25 μM) and 50 μM Aβ42 for 48 h.
# T3 sequence (P47900 whole entry): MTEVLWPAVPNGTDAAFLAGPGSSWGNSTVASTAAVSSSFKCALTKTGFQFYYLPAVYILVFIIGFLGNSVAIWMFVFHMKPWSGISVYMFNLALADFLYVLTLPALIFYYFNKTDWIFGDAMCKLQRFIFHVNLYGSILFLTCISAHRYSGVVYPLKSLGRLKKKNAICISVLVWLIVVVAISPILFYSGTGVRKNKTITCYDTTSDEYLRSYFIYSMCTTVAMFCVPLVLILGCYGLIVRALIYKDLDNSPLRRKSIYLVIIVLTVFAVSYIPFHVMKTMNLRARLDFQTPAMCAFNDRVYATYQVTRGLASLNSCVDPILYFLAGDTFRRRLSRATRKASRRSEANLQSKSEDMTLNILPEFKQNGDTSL
smiles,measurement,setting,value
"Nc1ncnc2c1ncn2C1OC(COP(O)(=S)OP(=O)(O)CP(=O)(O)O)C(O)C1O (stereo not drawn) [APPCP-α-S, adenosine 5′-[Pα-thio]-β,γ-methylenetriphosphate]",inhibition at 100 µM,human NPP3,23 to 43%
same,type of inhibition,human NPP1,"mixed type inhibition, predominantly competitive"
same,EC50,human P2Y1-R,> 10 µM
"N[C@@H](CCC(=O)N[C@@H](CS)C(=O)NCC(=O)O)C(=O)O [GSH, glutathione]",IC90,[1],491 ± 5 µM
"Nc1ncnc2c1ncn2[C@@H]1O[C@H](COP(=O)(O)OP(=O)(O)OP(=O)(O)O)[C@@H](O)[C@H]1O [ATP, adenosine triphosphate]",IC50,cortical neurons,30 ± 2.1 µM
same,Hydrolysis by TNAP,TNAP,100%
same,log K of Cu^2+ complex,[2],6.34
same,neuronal cells maintained,primary neurons,45%

# Reference: US20140378408A1, “NUCLEOSIDE 5'-PHOSPHOROTHIOATE ANALOGUES AND USES THEREOF” (BAR-ILAN UNIVERSITY, an Israeli University, priority 2012, published 2014)
